Where a name gives a salt, the structure may show the parent alone. Bounds are passed on as bounds.

Sequence of hERG potassium ion channels (Q12809 whole entry): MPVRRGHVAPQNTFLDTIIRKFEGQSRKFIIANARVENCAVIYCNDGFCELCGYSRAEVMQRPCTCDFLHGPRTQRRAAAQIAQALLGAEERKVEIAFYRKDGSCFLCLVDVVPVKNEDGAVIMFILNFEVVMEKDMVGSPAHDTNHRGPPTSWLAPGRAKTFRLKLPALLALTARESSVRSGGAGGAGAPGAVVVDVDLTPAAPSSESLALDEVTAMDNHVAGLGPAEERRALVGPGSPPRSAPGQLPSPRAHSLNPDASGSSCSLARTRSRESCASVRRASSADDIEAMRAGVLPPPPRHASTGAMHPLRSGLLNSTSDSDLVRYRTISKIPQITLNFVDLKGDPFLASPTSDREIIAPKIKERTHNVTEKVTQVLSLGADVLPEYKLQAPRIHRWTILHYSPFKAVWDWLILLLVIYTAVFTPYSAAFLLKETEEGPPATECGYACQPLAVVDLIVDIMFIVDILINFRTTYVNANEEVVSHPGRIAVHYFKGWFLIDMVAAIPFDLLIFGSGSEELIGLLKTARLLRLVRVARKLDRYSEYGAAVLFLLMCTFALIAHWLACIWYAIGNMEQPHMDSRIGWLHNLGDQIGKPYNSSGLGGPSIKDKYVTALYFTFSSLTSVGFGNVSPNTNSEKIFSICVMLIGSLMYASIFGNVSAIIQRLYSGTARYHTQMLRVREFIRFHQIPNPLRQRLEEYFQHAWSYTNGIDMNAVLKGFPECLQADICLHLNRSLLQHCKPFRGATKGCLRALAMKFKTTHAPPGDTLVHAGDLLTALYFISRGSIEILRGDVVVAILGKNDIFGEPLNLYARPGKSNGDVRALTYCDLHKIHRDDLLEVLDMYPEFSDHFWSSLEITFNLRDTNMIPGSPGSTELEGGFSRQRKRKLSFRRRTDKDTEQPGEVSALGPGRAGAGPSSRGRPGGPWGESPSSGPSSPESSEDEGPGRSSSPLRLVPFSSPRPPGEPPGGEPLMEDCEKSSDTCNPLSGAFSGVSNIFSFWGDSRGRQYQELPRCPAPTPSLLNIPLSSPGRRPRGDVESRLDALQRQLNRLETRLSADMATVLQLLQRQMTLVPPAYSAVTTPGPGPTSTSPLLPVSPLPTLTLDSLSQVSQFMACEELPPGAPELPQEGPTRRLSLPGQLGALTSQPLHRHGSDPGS

One test concerns the target human LSD1 (Homo sapiens (Human), UniProt O60341). As to the kind of experiment: Experiment 1B: in vitro LSD1 enzyme activity, enzyme-coupled fluorescence (HRP/Amplex Red), H3(1-21)K4me2 peptide 10 μM (Reaction Biology). The test is classed as biochemical. Conditions: histone H3(1-21)K4me2 peptide 10 μM. How it is done:
Experiment 1B: Evaluation of Enzyme Activity
Testing unit: Reaction Biology Corp., USA.
The purpose of the assay was to test the in vitro inhibitory activity of the compounds against LSD1. The enzyme used in the assay was human LSD1, and the standard substrate was histone H3(1-21)K4me2 peptide (10 μM). The activity of the compounds was determined by the enzyme-coupling fluorescent method by the combined detection of H2O2 generated after the reaction of LSD1 by horseradish peroxidase (HRP) and the fluorescent reagent Amplex Red. Starting from 10 μM, the compounds were 3-fold diluted to detect the IC50 values of the compounds at 10 concentrations. The enzyme and substrate were incubated for 30 minutes before the compound was added to the substrate to start the reaction. Fluorescence detector: EnVision, excitation wavelength: Ex/Em=535/590 nM.
Regarding `CC1(O)CN(c2ccc(-c3sc(C(=O)N4CCC[C@@H](N)C4)cc3-c3ccc(C#N)c(F)c3)cc2)C1` [Hydrochloride of compound 118], the IC50 (as a rule, the concentration that inhibits the measured activity by half) is 13.8 nM.

Regarding `CC(C)(O)CNc1ccc(-c2sc(C(=O)N3CCC[C@@H](N)C3)cc2-c2ccc(C#N)c(F)c2)cc1F` [Hydrochloride of compound 119], 17.7 nM corresponded to half-maximal inhibition (IC50).

Regarding `N#Cc1ccc(-c2cc(C(=O)N3CCC[C@@H](N)C3)sc2-c2ccc(NCC3(O)CCC3)c(F)c2)cc1F` [Hydrochloride of compound 120], the IC50 is 9.4 nM.

In the case of `Cn1nc2ccc(-c3sc(C(=O)N4CCC[C@@H](N)C4)cc3-c3ccc(C#N)c(F)c3)cc2c1F` [Hydrochloride of compound 123], the IC50 worked out at 26.7 nM.

The next test has as its target hERG potassium ion channels (Homo sapiens (Human), UniProt Q12809). Description: Experiment 4: hERG potassium ion channel inhibition, automated patch clamp (Qpatch), CHO-hERG cells. The test is classed as cell-based. The conditions noted are these: highest test concentration 40 μM. How it is done: Experiment 4: hERG Potassium Ion Channel Inhibition Assay
Experimental purpose: To test the effects of the test examples on hERG potassium ion channels using an automated patch clamp method.
4.1.1 CHO-hERG cells were cultured in a 175 cm^2 culture flask. When the cell density grew from 60% to 80%, the culture medium was removed. The cells were washed once with 7 mL of PBS (Phosphate Buffered Saline), and then 3 mL of Detachin cell dissociation reagent was added thereto for digestion.
4.1.2 After the digestion was completed, 7 mL of culture medium was added thereto for neutralization, then the mixture was centrifuged, the supernatant was aspirated, and then 5 mL of culture medium was added thereto for resuspension to ensure a cell density of 2×10^6/mL to 5×10^6/ML.
The single-cell high-resistance sealing and whole-cell modeling formation processes were all automatically completed by the Qpatch instrument of the Shanghai Institute of Materia Medica, Chinese Academy of Sciences. After obtaining the whole-cell recording modeling, the cells were clamped at −80 mV, and before a 5-second +40 mV depolarizing stimulus was given, a 50-millisecond −50 mV prepulse was first given, then the voltage was repolarized to −50 mV and holden for 5 seconds, and finally returned to −80 mV. This voltage stimulus was applied every 15 seconds, recorded for 2 minutes, and then the extracellular fluid was recorded for 5 minutes, and then the administration process was initiated, with compound concentrations starting at the lowest test concentration. The voltage stimulus was given for 2.5 minutes for each test concentration, and after all concentrations had been continuously given, 3 μM the positive control compound, Cisapride, was given. At least 3 cells were tested per concentration (n≥3).
4.4.1 The compound stock solution was diluted with DMSO, and 20 μL of DMSO solution was added with 10 μL of the compound stock solution, and serially diluted 3-fold to 6 DMSO concentrations.
4.4.2 4 μL of 6 DMSO concentrations of compounds were taken respectively and added to 396 μL of extracellular fluid, and the mixture was diluted 100-fold to 6 intermediate concentrations, then 80 μL of 6 intermediate concentrations of compounds was taken and added to 320 μL of extracellular fluid, and the mixture was diluted 5-fold to the final test concentration.
4.4.3 The highest test concentration was 40 μM, and the concentrations were respectively 40, 13.3, 4.4, 1.48, 0.494, and 0.165 μM for a total of six concentrations.
4.4.5 The preparation of the compound was completed by the Bravo instrument throughout the dilution process.
Experimental data were analyzed by GraphPad Prism 5.0 software.
(In general: Block of hERG is tested as a sign of cardiac risk.)
As for `CC(C)(O)Cn1cc2cc(-c3sc(C(=O)N4CCC[C@@H](N)C4)cc3-c3ccc(C#N)c(F)c3)cnc2n1` [Compound 61], the IC50 is greater than 40 µM.

As for `N#Cc1ccc(-c2cc(C(=O)N3CCC[C@@H](N)C3)sc2-c2ccc3nncn3c2)cc1F` [Compound 67], the IC50 was greater than 40 µM.

As to `N#Cc1ccc(-c2cc(C(=O)N3CCC[C@@H](N)C3)sc2-c2ccc3nn(C4COC4)cc3c2)cc1F` [Compound 70], the midpoint of inhibition, the IC50, lay at 18.7 µM.

As for `N#Cc1ccc(-c2cc(C(=O)N3CCC[C@@H](N)C3)sc2-c2ccn3cnnc3c2)cc1F` [Compound 76], the IC50 was greater than 40 µM.

`N#Cc1ccc(-c2cc(C(=O)N3CCC[C@@H](N)C3)sc2-c2ccc3oncc3c2)cc1F` [Compound 77] came in with a concentration for half-maximal inhibition (IC50) greater than 40 µM.

As for `CC1(O)CN(C(=O)c2ccc(-c3sc(C(=O)N4CCC[C@@H](N)C4)cc3-c3ccc(C#N)c(F)c3)cc2)C1` [Compound 81], the IC50 was greater than 40 µM.

In turn, `Cn1cc(-c2sc(C(=O)N3CCC[C@@H](N)C3)cc2-c2ccc(C#N)c(F)c2)ccc1=O` [Hydrochloride of compound 32] had a concentration for half-maximal inhibition (IC50) greater than 40 µM.

The molecule `N#Cc1ccc(-c2cc(C(=O)N3CCC[C@@H](N)C3)sc2-c2cnc(N)nc2)cc1F` [Hydrochloride of compound 45] came in with an IC50 of 32.6 µM.

For the next test, the system named is NCI-H1417 cells. Description: Experiment 2: inhibition of NCI-H1417 cell proliferation (CellTiter-Glo, 10 days). The conditions noted are these: Homo sapiens, 240 h, 10 days incubation. The test is classed as cell-based. As to the method: Experiment 2: Evaluation of Inhibitory Activity on NCI-H1417 Cell Proliferation
Experimental purpose: To test the inhibitory activity of test compounds on NCI-H1417 cell proliferation.
Experimental materials: RPMI 1640 medium, fetal bovine serum, Promega CellTiter-Glo reagent. The NCI-H1417 cell line was purchased from ATCC. Envision multilabel plate reader (PerkinElmer).
Experimental method: The compounds were dissolved to 10 mM and 5-fold diluted with DMSO in the compound plates, starting with a concentration of 2 mM. 3-fold serial dilution was performed with Bravo to 10 concentrations. Then 250 nL of the compound solution was transferred to the upper and lower double duplicate wells of a blank 384 cell plate with Echo. To each well containing the transferred 250 nL of DMSO/compound was added a cell suspension of 1000 cells/50 μL per well, and the compound was diluted 200-fold, i.e., resulting in an initial working concentration of 10 μM. The cell plate was incubated in a carbon dioxide incubator for 10 days. To the cell plate was added 25 μL of Promega CellTiter-Glo reagent per well and the mixture was shaken for 10 minutes at room temperature to stabilize the luminescence signal. Readings were performed on a PerkinElmer Envision multilabel plate reader.
Data analysis: Raw data were converted into inhibition rate using the formula: (Max−Ratio)/(Max−Min)*100%. The IC50 values could then be derived from four-parameter curve fitting. (derived from 205 mode in XLFIT5, iDBS)
The compounds were tested for inhibitory activity of compounds on NCI-H1417 cell proliferation, and the results are shown in Table 3.
Background: Cellular ATP, detected with luciferase, serves as a proxy for viable cell number.
`N#Cc1ccc(-c2cc(C(=O)N3CCC[C@@H](N)C3)sc2-c2ccc3nn(C4COC4)cc3c2)cc1F` [Compound 70] registered an IC50 of 9.88 nM.

`CC1(O)CN(c2ccc(-c3sc(C(=O)N4CCC[C@@H](N)C4)cc3-c3ccc(C#N)c(F)c3)cc2)C1` [Hydrochloride of compound 118]: the IC50 stood at 31.6 nM.

`CC(C)(O)CNc1ccc(-c2sc(C(=O)N3CCC[C@@H](N)C3)cc2-c2ccc(C#N)c(F)c2)cc1F` [Hydrochloride of compound 119] yielded an IC50 of 9.17 nM.

In turn, `N#Cc1ccc(-c2cc(C(=O)N3CCC[C@@H](N)C3)sc2-c2ccc(NCC3(O)CCC3)c(F)c2)cc1F` [Hydrochloride of compound 120] displayed a 50% inhibitory concentration (IC50) of 17.5 nM.

`Cn1nc2ccc(-c3sc(C(=O)N4CCC[C@@H](N)C4)cc3-c3ccc(C#N)c(F)c3)cc2c1F` [Hydrochloride of compound 123] gave a half-inhibitory concentration (IC50) of 6.25 nM.

Values taken from patent US20240199571A1, “THIOPHENE COMPOUND AND APPLICATION THEREOF” (MEDSHINE DISCOVERY INC., priority 2021, published 2024).
